The values that follow come from patent US10131647B2, “Chromene derivatives substituted by alkoxide as inhibitors of the TCR-Nck interaction” (ARTAX BIOPHARMA INC., priority 2013, dated 2018).

Read-outs that look alike come from different tables or passages of the source.

Series [1] can be described thus: Pharmacokinetics after intravenous bolus and oral gavage. Conditions: for F: 50 mg/kg vs IV 5 mg/kg. It is filed as in vivo, Swiss albino mice.
Series [2] deals with chronic EAE induced by MOG35-55 peptide. The series is described as follows: In vivo test on model of chronic EAE (Experimental Autoimmune Encephalomyelitis). Details: species or system C57BL/6 female mice.
[3] abbreviates: mouse, in vivo, IV (5 mg/kg), Swiss albino mice, mean.
[4] abbreviates: mouse, in vivo, PO (50 mg/kg), Swiss albino mice, mean.
[5] abbreviates: oral, first 10 days from immunization, versus placebo group.
Where [6] appears, read: IV, 5 mg/kg, Swiss albino mice, mean.
Where [7] appears, read: PO, 50 mg/kg, Swiss albino mice, mean.

`Fc1ccc(C2=C(CN3CCCC3)COc3ccc(OCC4CC4)cc32)cc1` [AX-104, 1-((6-(cyclopropylmethoxy)-4-(4-fluorophenyl)-2H-chromen-3-yl)methyl)pyrrolidine] showed a F in series [1] (PO, Swiss albino mice) of 24. Further, the bioavailability in series [1] (Swiss albino, mouse, in vivo, 50 mg/kg, oral gavage vs intravenous bolus, text says rats, n=3, read-out: total bioavailability after oral administration) was 24%. In series [1] (setting [3]), this compound had an area under the curve AUC(0-inf) of 750 ng·h/mL, an AUC(0-t) of 724 ng·h/mL, a clearance of 111 mL/min/kg and a half-life of 8.45 h. For the same compound, in series [1] (mouse, in vivo, IV (5 mg/kg), Swiss albino mice, mean, read-out: Cmax), the maximum concentration (Cmax) is 1280 ng/mL. Further, the Vd in series [1] (mouse, in vivo, IV (5 mg/kg), Swiss albino mice, mean, read-out: Vss) turned out to be 20.6 L/kg. Moreover, in series [1] (setting [4]), the AUC(0-inf) was 1790 ng·h/mL and the AUC(0-t) was 1760 ng·h/mL. Moreover, the Cmax in series [1] (mouse, in vivo, PO (50 mg/kg), Swiss albino mice, mean, read-out: Cmax) was found to be 930 ng/mL. Besides, the Tmax in series [1] (mouse, in vivo, PO (50 mg/kg), Swiss albino mice, mean, read-out: Tmax) was 0.25 h. Also, in series [2] (setting [5]), the “clinical score of the disease (scale 0-6), FIG. 2” value is recorded as “reduced score when compared to the placebo group” and the “weight of the animals (weight loss), FIG. 3” value was “weight loss significantly reduced”. In series [2] (overall results of the EAE study), the “impact of the symptoms associated to the model” value is “significantly reducing the impact of the symptoms”.
In series [1] (setting [6]), `COc1ccc2c(c1)C(c1ccc(F)cc1)=C(CN1CCCC1)CO2` [ECRA-24] returned an AUCint of 840.27 ng·h/mL, an AUClast of 838.43 ng·h/mL, a CL of 99.17 mL/min/kg and a Cmax of 1168.89 ng/mL. In series [1] (setting [6]), this compound displayed a T1/2 of 3.36 h and a Vss of 11.37 L/kg. Also, the F in series [1] (PO, Swiss albino mice) is 4. In series [1] (setting [7]), this compound came in with an AUCint of 299.69 ng·h/mL, an AUClast of 297.03 ng·h/mL, a Cmax of 171.56 ng/mL and a T1/2 of 4.93 h. Besides, the Tmax in series [1] (setting [7]) is 0.25 h.

In general, AUC(0-inf) refers to total exposure, with the tail of the curve extrapolated. A lower AUC(0-inf) goes with less exposure. One may read the AUC(0-t) as exposure summed from dosing to a finite time, without extrapolation to infinity. A lower AUC(0-t) goes with low exposure. A word on the half-life: it is how long it takes for the measured level to halve. Low readings indicate rapid decline, high ones slow decline. As a reminder, the Cmax is the peak of the concentration-time curve. As usually defined, the Tmax is the time from dosing to the highest level.
